Source: article PMC5324278, “Novel synthetic analogues of avian β-defensin-12: the role of charge, hydrophobicity, and disulfide bridges in biological functions” (BMC Microbiology, 2017)
Bridge positions count the residues as written; N and C are the ends. Square brackets hold non-standard residues; d marks the D form. Ends that are not written are not given here. Abu = CC[C@H](N)C(=O)O

Legend:
[1] = test system: CCR2 transfected CHO-K1 cells; assay: Chemotaxis assay, 48-well microchemotaxis chamber; assay type: cell-based, avian; conditions: Fig. 9; n = 5

| Substance | chemotactic activity for CCR2-CHO-K1 cells (in words) [1] | chemotactic activity, % of wild type AvBD-12 [%] |
| --- | --- | --- |
| GPDSC^1NHDRGLC^2RVGNC^3NPGEYLAKYC^4FEPVILC^5C^6VRNRWA (bicyclic or more) [AvBD-12/6, group 3 hybrid peptide: backbone of AvBD-12 with amino acid residues of AvBD-6] | retained the chemotactic function | – |
| GPDS[Abu]NHDRGL[Abu]RVGNCNPGEYLAKY[Abu]FEPVIL[Abu]CKPLSPTPTKT (disulfide 17-35) [AvBD-12A5] | lost their chemotactic activity | – |
| GPDS[Abu]NHDRGL[Abu]RVGN[Abu]NPGEYLAKY[Abu]FEPVIL[Abu][Abu]KPLSPTPTKT [AvBD-12A6] | lost their chemotactic activity | – |
| GPHSANHVRGLARVGNANPGLYLAKYAFIPVILAAKPLSPTPTKT [AvBD-12A1] | minimal chemotactic activity | – |
| GPRSANHKRGLARVGNANPGKYLAKYSFRPVILSSKPLSPTPTKT [AvBD-12A3] | minimal chemotactic activity | > 50 |
